Laboratory results reported in DBAASP.
In brackets after ≈: the same amount, converted by molar mass. Each block holds one compound with its values, some of them ahead of it.

Legend:
Test in all cases: ≥ marks a high value that may be exact or a test limit, other limits are often not marked, values filed in µg/mL are converted to µM
[1] = tested on: Candida albicans ATCC 64550
[2] = tested on: Candida albicans ATCC 90028
[3] = tested on: Escherichia coli ATCC 25922
[4] = tested on: Pseudomonas aeruginosa ATCC 9027
[5] = tested on: Staphylococcus aureus ATCC 29737
[6] = tested on: Staphylococcus aureus USA 100
[7] = tested on: Staphylococcus aureus USA 300
[8] = tested on: Staphylococcus epidermidis ATCC 12228
[9] = tested on: Actinomyces naeslundii ATCC 12104
[10] = tested on: Actinomyces viscosus ATCC 15987
[11] = tested on: Lacticaseibacillus casei ATCC 393
[12] = tested on: Lactobacillus acidophilus ATCC 14931
[13] = tested on: Limosilactobacillus fermentum ATCC 9338
[14] = tested on: Streptococcus gordonii DL1
[15] = tested on: Streptococcus mutans UA159
[16] = tested on: Streptococcus sanguinis ATCC 10556
[17] = tested on: Streptococcus sobrinus ATCC 6715
[18] = tested on: Bacillus subtilis ATCC 6633
[19] = tested on: Candida albicans ATCC 10231
[20] = tested on: Candida parapsilosis ATCC 22019
[21] = tested on: Cryptococcus neoformans
[22] = tested on: Escherichia coli ATCC 9637
[23] = tested on: Klebsiella pneumoniae ATCC 27736
[24] = tested on: Pseudomonas aeruginosa ATCC BAA-427
[25] = tested on: Sporothrix schenckii
[26] = tested on: Staphylococcus aureus ATCC 25923
[27] = tested on: Staphylococcus aureus ATCC 29213
[28] = tested on: Staphylococcus aureus ATCC 33592
[29] = tested on: Staphylococcus aureus ATCC 700698
[30] = tested on: Staphylococcus aureus ATCC 700699
[31] = tested on: Staphylococcus aureus ATCC BAA-44
[32] = tested on: Escherichia coli D31
[33] = tested on: Listeria fleischmannii DSM 24998
[34] = tested on: Listeria grayi DSM 20601
[35] = tested on: Listeria monocytogenes DSM 20600
[36] = tested on: Micrococcus luteus DSM 20030
[37] = tested on: Candida albicans C627
[38] = tested on: Enterococcus faecium mic80
[39] = tested on: Escherichia coli ESBL 63103
[40] = tested on: Pseudomonas aeruginosa 213
[41] = tested on: Pseudomonas aeruginosa H103
[42] = tested on: Pseudomonas aeruginosa LES400
[43] = tested on: Staphylococcus aureus C623

MIC [1]: 12.5 µM (≈ 13.7 µg/mL)
MIC [2]: 6.25 µM (≈ 6.84 µg/mL)
MIC [3]: 7.12 µM (≈ 7.79 µg/mL)
MIC [4]: 6.25 µM (≈ 6.84 µg/mL)
MIC [5]: 28.6 µM (≈ 31.3 µg/mL)
MIC [6]: 6.25 µM (≈ 6.84 µg/mL)
MIC [7]: 6.25 µM (≈ 6.84 µg/mL)
MIC [8]: 3.56 µM (≈ 3.9 µg/mL)
SMILES: CC[C@H](C)[C@H](N)C(=O)N[C@@H](CCCN=C(N)N)C(=O)N[C@H](C(=O)N[C@@H](CCCN=C(N)N)C(=O)N[C@H](C(=O)N[C@@H](CCCN=C(N)N)C(=O)N[C@H](C(=O)N[C@@H](CCCN=C(N)N)C(N)=O)[C@@H](C)CC)[C@@H](C)CC)[C@@H](C)CC [IRIRIRIR]

MIC [9]: ≥ 130 µM
MIC [10]: ≥ 32.4 µM
MIC [11]: ≥ 64.8 µM
MIC [12]: ≥ 130 µM
MIC [13]: ≥ 130 µM
MIC [14]: ≥ 518 µM
MIC [15]: ≥ 259 µM
MIC [16]: ≥ 518 µM
SMILES: CC(C)C[C@H](NC(=O)CN)C(=O)N[C@@H](CC(C)C)C(=O)N[C@@H](Cc1c[nH]c2ccccc12)C(=O)N[C@@H](Cc1cnc[nH]1)C(=O)N[C@@H](CC(C)C)C(=O)N[C@@H](CC(C)C)C(=O)N[C@@H](Cc1cnc[nH]1)C(N)=O [GLLWHLLH]

MIC [15]: 9.36 µM (≈ 16 µg/mL)
MIC [16]: 18.7 µM (≈ 32 µg/mL)
MIC [17]: 18.7 µM (≈ 32 µg/mL)
SMILES: NCCCC[C@H](NC(=O)[C@H](Cc1c[nH]c2ccccc12)NC(=O)[C@H](CCCCN)NC(=O)[C@H](CCCCN)NC(=O)[C@H](Cc1ccccc1)NC(=O)[C@H](Cc1ccccc1)NC(=O)[C@H](CCCCN)NC(=O)[C@H](CCCCN)NC(=O)[C@H](Cc1ccccc1)NC(=O)[C@H](Cc1ccccc1)NC(=O)[C@H](CCCCN)NC(=O)[C@@H](N)Cc1ccccc1)C(=O)O [FKFFKKFFKKWK]

MIC [18]: 3 µM (≈ 8.8 µg/mL)
MIC [19]: 13.6 µM (≈ 39.9 µg/mL)
MIC [20]: 13.6 µM (≈ 39.9 µg/mL)
MIC [21]: 13.6 µM (≈ 39.9 µg/mL)
MIC [22]: 3 µM (≈ 8.8 µg/mL)
MIC [23]: 13.6 µM (≈ 39.9 µg/mL)
MIC [24]: 6.8 µM (≈ 19.9 µg/mL)
MIC [25]: 27.2 µM (≈ 79.8 µg/mL)
MIC [26]: 3 µM (≈ 8.8 µg/mL)
MIC [27]: 6.8 µM (≈ 19.9 µg/mL)
MIC [28]: 1.6 µM (≈ 4.69 µg/mL)
MIC [29]: 3 µM (≈ 8.8 µg/mL)
MIC [30]: 3 µM (≈ 8.8 µg/mL)
MIC [31]: 3 µM (≈ 8.8 µg/mL)
SMILES: CC[C@H](C)[C@H](NC(=O)[C@H](C)NC(=O)CNC(=O)[C@H](CCCCN)NC(=O)[C@@H](NC(=O)[C@H](CC(C)C)NC(=O)[C@H](Cc1c[nH]c2ccccc12)NC(=O)CNC(=O)[C@H](Cc1ccccc1)NC(=O)[C@@H](N)Cc1ccccc1)[C@@H](C)CC)C(=O)N[C@@H](Cc1cnc[nH]1)C(=O)N[C@@H](C)C(=O)NCC(=O)N[C@@H](CCCCN)C(=O)N[C@@H](C)C(=O)N[C@H](C(=O)N[C@@H](Cc1cnc[nH]1)C(=O)N1CCC[C@H]1C(=O)N[C@@H](CC(C)C)C(=O)N[C@H](C(=O)N[C@@H](Cc1cnc[nH]1)C(=O)N[C@@H](CCCN=C(N)N)C(=O)N[C@@H](CCCN=C(N)N)C(=O)N[C@@H](CCCN=C(N)N)C(=O)N[C@@H](Cc1cnc[nH]1)C(=O)O)[C@@H](C)CC)[C@@H](C)CC [FFGWLIKGAIHAGKAIHPLIHRRRH]

MIC [32]: 15 µM (≈ 23.2 µg/mL)
MIC [33]: 15 µM (≈ 23.2 µg/mL)
MIC [34]: 8 µM (≈ 12.4 µg/mL)
MIC [35]: 15 µM (≈ 23.2 µg/mL)
MIC [36]: 8 µM (≈ 12.4 µg/mL)
SMILES: CC[C@H](C)[C@H](NC(=O)[C@H](C)NC(=O)[C@H](CCCCN)NC(=O)[C@H](CCCCN)NC(=O)[C@@H](NC(=O)CNC(=O)[C@H](CCC(=O)O)NC(=O)[C@H](CC(C)C)NC(=O)[C@H](CC(C)C)NC(=O)[C@H](CCCCN)NC(=O)CNC(=O)[C@H](Cc1c[nH]c2ccccc12)NC(=O)[C@H](Cc1ccccc1)NC(=O)CN)C(C)C)C(N)=O [GFWGKLLEGVKKAI]

MIC [37]: 5.54 µM (≈ 8 µg/mL)
MIC [38]: 22.1 µM (≈ 32 µg/mL)
MIC [39]: ≥ 44.3 µM
MIC [40]: ≥ 88.6 µM
MIC [41]: 22.1 µM (≈ 32 µg/mL)
MIC [42]: ≥ 44.3 µM
MIC [26]: 11.1 µM (≈ 16 µg/mL)
MIC [43]: 11.1 µM (≈ 16 µg/mL)
SMILES: CC[C@H](C)[C@H](NC(=O)[C@H](CCCCN)NC(=O)[C@H](Cc1c[nH]c2ccccc12)NC(=O)[C@H](Cc1c[nH]c2ccccc12)NC(=O)[C@@H](N)CCCCN)C(=O)N[C@@H](Cc1c[nH]c2ccccc12)C(=O)N[C@@H](CCCN=C(N)N)C(=O)N[C@@H](Cc1c[nH]c2ccccc12)C(=O)N[C@@H](CCCN=C(N)N)C(=O)O [KWWKIWRWR]
